Assay results reported in ChEMBL document CHEMBL4507276 (2021).

Key:
[1] = target: Cyclin-dependent kinase 17 (Homo sapiens) (UniProt Q00537); conditions: Compound concentration 1000.0 nM
[2] = target: STE20/SPS1-related proline-alanine-rich protein kinase (Homo sapiens) (UniProt Q9UEW8); conditions: Compound concentration 1000.0 nM
[3] = target: Ephrin type-A receptor 3 (Homo sapiens) (UniProt P29320); conditions: Compound concentration 1000.0 nM
[4] = target: Serine/threonine-protein kinase Nek4 (Homo sapiens) (UniProt P51957); conditions: Compound concentration 1000.0 nM
Serine/threonine-protein kinase Nek4 (Homo sapiens), sequence (P51957 whole entry, looked up): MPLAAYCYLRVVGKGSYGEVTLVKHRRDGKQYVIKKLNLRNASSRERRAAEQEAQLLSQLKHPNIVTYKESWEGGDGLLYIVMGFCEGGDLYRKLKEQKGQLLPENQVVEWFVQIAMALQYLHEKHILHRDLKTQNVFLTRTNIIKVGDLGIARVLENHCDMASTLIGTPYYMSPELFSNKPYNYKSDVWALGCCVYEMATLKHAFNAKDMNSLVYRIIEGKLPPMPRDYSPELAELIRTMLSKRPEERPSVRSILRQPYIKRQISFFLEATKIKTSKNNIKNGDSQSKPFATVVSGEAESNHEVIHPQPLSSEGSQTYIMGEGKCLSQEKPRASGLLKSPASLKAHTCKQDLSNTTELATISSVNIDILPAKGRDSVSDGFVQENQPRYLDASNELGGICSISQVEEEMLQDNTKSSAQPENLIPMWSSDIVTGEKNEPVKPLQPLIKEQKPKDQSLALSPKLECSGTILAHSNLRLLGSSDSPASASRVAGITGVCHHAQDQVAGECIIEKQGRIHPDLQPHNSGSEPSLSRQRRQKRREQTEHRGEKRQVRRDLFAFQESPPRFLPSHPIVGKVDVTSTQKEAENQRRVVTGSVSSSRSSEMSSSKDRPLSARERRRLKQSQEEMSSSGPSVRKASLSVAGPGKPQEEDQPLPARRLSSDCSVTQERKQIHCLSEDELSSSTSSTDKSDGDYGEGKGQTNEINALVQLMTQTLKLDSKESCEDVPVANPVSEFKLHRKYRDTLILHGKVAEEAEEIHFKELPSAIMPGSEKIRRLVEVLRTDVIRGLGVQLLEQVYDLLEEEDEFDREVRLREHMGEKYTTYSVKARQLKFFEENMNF

[5] = target: Receptor-type tyrosine-protein kinase FLT3 (Homo sapiens) (UniProt P36888); conditions: Compound concentration 1000.0 nM
Receptor-type tyrosine-protein kinase FLT3 (Homo sapiens), sequence (P36888 whole entry): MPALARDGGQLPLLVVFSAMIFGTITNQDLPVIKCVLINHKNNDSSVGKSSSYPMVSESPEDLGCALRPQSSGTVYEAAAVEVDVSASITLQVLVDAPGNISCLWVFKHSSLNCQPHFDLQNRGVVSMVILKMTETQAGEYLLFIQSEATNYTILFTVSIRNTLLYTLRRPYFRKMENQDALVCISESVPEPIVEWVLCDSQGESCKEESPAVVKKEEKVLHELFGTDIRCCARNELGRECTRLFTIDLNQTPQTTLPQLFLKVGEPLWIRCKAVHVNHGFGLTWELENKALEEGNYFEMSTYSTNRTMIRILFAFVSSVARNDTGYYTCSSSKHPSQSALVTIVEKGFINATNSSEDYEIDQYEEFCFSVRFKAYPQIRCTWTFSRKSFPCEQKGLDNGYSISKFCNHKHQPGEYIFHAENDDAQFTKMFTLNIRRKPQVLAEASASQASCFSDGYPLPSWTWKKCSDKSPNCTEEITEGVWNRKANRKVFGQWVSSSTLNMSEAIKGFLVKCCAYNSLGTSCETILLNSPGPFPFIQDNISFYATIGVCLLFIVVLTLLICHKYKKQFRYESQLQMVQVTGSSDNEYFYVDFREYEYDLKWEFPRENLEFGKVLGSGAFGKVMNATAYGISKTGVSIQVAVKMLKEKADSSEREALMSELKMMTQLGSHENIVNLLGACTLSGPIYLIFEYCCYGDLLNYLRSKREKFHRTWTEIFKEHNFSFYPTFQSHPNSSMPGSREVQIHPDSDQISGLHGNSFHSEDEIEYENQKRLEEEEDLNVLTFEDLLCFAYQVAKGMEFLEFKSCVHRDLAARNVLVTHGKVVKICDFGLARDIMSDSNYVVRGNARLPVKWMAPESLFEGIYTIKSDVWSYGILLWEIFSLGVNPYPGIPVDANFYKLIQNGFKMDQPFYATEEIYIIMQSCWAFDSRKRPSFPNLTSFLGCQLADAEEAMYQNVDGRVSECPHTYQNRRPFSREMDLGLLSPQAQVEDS

[6] = target: Ribosomal protein S6 kinase alpha-3 (Homo sapiens) (UniProt P51812); conditions: Compound concentration 1000.0 nM
[7] = target: Delta-type opioid receptor (Homo sapiens) (UniProt P41143); conditions: Compound concentration 10.0 uM
Delta-type opioid receptor (Homo sapiens), sequence (P41143 whole entry): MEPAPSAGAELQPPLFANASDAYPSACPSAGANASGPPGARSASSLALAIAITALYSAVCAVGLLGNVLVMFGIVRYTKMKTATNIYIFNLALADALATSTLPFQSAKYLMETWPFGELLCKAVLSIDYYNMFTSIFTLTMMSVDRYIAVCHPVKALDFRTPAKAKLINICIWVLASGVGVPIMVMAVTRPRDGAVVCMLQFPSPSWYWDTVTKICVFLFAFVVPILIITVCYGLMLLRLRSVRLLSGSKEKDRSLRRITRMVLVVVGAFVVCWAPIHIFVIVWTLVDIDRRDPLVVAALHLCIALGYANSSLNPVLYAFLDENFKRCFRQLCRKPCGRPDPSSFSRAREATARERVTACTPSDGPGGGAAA

[8] = system: Proto-oncogene tyrosine-protein kinase receptor Ret (Homo sapiens), P07949 [V804L]; conditions: Compound concentration 1000.0 nM
[9] = target: Dual specificity protein kinase CLK3 (Homo sapiens) (UniProt P49761); conditions: Compound concentration 1000.0 nM
Dual specificity protein kinase CLK3 (Homo sapiens), sequence (P49761 whole entry, looked up): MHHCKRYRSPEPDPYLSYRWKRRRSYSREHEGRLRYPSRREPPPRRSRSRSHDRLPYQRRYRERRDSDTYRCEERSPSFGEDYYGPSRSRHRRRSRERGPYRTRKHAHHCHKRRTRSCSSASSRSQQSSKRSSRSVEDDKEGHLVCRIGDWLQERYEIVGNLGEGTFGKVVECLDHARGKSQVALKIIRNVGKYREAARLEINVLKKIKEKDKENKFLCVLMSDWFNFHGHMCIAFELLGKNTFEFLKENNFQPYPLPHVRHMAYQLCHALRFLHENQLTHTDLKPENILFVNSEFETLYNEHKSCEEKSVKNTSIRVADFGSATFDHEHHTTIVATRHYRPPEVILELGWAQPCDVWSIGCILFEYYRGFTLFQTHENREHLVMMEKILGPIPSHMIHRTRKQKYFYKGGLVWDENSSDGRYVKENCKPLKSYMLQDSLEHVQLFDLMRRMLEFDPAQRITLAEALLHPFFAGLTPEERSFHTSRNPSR

[10] = target: Serine/threonine-protein kinase pim-1 (Homo sapiens) (UniProt P11309); conditions: Compound concentration 1000.0 nM
Serine/threonine-protein kinase pim-1 (Homo sapiens), sequence (P11309 whole entry, looked up): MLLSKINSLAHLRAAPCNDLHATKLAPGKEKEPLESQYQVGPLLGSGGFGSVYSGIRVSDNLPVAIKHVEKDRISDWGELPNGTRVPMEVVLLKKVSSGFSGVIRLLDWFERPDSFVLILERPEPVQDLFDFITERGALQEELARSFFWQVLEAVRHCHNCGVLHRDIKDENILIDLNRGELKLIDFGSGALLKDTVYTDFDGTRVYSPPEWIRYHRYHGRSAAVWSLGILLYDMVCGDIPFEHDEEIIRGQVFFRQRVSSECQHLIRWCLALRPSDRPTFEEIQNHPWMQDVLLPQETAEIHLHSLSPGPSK

[11] = target: D(1B) dopamine receptor (Homo sapiens) (UniProt P21918); conditions: Compound concentration 10.0 uM
[12] = target: Serine/threonine-protein kinase RIO2 (Homo sapiens) (UniProt Q9BVS4); conditions: Compound concentration 1000.0 nM
[13] = target: T1, Serine/threonine-protein kinase Sgk2 (Homo sapiens) (UniProt Q9HBY8); conditions: Compound concentration 1000.0 nM
T1 sequence (whole entry): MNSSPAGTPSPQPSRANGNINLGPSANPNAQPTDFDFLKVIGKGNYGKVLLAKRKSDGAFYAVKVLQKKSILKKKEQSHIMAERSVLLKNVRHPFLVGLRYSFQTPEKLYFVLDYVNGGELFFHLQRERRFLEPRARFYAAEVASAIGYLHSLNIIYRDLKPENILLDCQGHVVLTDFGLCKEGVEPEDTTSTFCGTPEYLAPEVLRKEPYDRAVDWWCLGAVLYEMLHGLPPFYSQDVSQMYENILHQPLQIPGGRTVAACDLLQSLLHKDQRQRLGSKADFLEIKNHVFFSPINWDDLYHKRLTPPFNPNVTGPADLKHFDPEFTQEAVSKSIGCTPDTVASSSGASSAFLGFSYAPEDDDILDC

[14] = target: T2, Serine/threonine-protein kinase Sgk1 (Homo sapiens) (UniProt O00141); conditions: Compound concentration 1000.0 nM
T2 sequence (whole entry): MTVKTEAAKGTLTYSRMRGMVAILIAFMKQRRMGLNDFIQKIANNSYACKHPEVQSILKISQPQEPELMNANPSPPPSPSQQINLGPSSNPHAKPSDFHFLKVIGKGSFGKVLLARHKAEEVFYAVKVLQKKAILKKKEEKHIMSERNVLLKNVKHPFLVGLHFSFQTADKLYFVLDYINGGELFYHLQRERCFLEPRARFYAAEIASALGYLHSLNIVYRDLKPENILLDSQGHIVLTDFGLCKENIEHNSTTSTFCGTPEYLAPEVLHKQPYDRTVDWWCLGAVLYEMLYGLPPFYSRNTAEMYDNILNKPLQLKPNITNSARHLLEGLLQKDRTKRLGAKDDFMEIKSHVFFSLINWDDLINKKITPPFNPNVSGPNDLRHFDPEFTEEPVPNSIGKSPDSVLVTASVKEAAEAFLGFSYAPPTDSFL

[15] = target: Leukocyte tyrosine kinase receptor (Homo sapiens) (UniProt P29376); conditions: Compound concentration 1000.0 nM
Leukocyte tyrosine kinase receptor (Homo sapiens), sequence (P29376 whole entry): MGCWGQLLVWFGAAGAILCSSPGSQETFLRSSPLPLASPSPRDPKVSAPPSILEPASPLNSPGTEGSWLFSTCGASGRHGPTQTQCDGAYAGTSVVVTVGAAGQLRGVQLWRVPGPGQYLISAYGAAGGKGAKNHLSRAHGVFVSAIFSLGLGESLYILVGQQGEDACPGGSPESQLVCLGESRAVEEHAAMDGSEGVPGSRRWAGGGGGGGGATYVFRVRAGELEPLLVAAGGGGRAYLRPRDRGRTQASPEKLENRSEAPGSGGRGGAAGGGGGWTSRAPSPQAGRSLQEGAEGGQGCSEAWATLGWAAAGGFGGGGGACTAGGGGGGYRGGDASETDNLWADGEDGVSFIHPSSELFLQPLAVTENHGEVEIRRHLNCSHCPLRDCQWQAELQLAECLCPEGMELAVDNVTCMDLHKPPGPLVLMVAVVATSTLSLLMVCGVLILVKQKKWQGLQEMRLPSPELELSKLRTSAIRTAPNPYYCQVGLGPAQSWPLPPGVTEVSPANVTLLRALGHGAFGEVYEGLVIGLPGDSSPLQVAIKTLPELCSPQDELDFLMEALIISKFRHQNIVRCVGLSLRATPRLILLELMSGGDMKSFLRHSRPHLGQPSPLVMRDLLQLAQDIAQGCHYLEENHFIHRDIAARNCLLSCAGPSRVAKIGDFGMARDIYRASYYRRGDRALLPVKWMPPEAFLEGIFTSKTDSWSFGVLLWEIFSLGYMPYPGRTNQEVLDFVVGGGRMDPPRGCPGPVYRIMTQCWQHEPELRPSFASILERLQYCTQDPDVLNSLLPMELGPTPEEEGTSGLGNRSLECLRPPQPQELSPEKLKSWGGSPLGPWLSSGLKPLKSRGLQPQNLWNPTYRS

[16] = target: Dual specificity protein kinase CLK2 (Homo sapiens) (UniProt P49760); conditions: Compound concentration 1000.0 nM
Dual specificity protein kinase CLK2 (Homo sapiens), sequence (P49760 whole entry, looked up): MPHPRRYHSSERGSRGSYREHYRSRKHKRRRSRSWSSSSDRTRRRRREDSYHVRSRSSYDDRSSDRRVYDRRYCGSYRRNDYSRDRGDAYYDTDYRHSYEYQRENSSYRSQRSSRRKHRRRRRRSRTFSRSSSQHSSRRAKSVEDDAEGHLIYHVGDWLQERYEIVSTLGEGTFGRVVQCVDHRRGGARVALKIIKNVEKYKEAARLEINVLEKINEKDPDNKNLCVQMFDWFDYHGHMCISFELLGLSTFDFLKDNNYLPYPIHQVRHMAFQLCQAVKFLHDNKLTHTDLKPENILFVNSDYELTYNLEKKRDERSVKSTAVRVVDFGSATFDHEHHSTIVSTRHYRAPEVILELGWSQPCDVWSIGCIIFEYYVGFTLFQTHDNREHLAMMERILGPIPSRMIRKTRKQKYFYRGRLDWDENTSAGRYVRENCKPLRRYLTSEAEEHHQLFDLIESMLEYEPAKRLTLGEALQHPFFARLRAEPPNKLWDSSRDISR

[17] = target: T3, Serine/threonine-protein kinase haspin (Homo sapiens) (UniProt Q8TF76); conditions: Compound concentration 1000.0 nM
T3 sequence (whole entry): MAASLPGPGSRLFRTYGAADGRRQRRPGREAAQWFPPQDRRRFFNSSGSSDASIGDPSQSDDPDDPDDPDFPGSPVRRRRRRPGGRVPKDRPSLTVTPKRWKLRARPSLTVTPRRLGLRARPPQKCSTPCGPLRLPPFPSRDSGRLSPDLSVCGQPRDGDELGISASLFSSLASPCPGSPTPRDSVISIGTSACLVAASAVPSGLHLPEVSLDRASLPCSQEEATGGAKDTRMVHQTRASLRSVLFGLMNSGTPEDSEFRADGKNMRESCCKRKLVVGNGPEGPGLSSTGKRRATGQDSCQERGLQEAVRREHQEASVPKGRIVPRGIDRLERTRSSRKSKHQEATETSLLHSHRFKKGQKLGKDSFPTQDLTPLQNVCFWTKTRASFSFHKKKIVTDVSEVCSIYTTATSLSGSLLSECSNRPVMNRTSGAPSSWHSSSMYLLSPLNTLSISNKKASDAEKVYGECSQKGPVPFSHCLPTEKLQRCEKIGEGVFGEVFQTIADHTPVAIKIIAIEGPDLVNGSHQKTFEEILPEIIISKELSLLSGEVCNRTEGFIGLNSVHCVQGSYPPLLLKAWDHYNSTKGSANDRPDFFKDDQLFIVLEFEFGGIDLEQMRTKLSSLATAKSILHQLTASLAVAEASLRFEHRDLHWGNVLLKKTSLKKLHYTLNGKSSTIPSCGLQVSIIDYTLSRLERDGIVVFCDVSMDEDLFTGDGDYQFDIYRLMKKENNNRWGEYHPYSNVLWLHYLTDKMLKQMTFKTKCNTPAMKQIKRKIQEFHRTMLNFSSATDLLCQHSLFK

Cyclin-dependent kinase 17 (Homo sapiens), sequence (Q00537 whole entry, looked up): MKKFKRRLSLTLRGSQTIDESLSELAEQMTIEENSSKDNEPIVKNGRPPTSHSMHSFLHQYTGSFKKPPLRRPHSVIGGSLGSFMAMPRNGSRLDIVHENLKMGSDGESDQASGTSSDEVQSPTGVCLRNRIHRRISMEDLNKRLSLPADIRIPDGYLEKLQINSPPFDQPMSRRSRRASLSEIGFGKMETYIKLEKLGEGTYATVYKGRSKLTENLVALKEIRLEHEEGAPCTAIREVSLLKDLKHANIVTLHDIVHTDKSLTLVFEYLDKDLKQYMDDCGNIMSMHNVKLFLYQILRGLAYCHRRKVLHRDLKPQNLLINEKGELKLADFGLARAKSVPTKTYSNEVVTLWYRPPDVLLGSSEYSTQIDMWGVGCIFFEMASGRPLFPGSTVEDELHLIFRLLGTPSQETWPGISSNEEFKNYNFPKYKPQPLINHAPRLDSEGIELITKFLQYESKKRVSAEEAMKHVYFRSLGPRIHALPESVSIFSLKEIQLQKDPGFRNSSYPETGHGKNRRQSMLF

CN(C)C(=O)Cn1cc(-c2nc(C3(c4ccc(-c5cnc(N)nc5)cc4)CC3)no2)cn1 [BI 0153]
inactive: residual activity [1] 100% | residual activity [2] 100% | residual activity [3] 89% | residual activity [4] 95% | residual activity [5] 81% | residual activity [6] 85% | inhibition [7] -5.53% | residual activity [8] 100% | residual activity [9] 100% | residual activity [10] 100% | inhibition [11] 22.8% | residual activity [12] 76% | residual activity [13] 100% | residual activity [14] 96% | residual activity [15] 90% | residual activity [16] 94% | residual activity [17] 74%

CN(C)C(=O)Cn1cc(-c2nc([C@@](C)(c3ccc(-c4cnc(N)nc4)cc3)C3CC3)no2)cn1 [BI 665915]
inactive: residual activity [1] 96% | residual activity [2] 81% | residual activity [3] 100% | residual activity [4] 88% | residual activity [5] 82% | residual activity [6] 100% | inhibition [7] -7.13% | residual activity [8] 93% | residual activity [9] 100% | residual activity [10] 100% | inhibition [11] 9.24% | residual activity [12] 87% | residual activity [13] 83% | residual activity [14] 91% | residual activity [15] 89% | residual activity [16] 96% | residual activity [17] 100%
